Test results published in publication PMC10824102, “Identification of small molecule inhibitors of G3BP-driven stress granule formation” (The Journal of Cell Biology, 2024).

How the values were obtained:
[1] = tested on: preformed stress granules in U2OS cells stably expressing G3BP1-GFP; assay: Post-addition: dissolution of preformed arsenite-induced stress granules; assay type: cell-based; details: 50 μM added after 30 min of 250 μM NaAsO2
Protocol: For post-addition of compounds, U2OS cells stably expressing G3BP1-GFP were seeded into eight-well Lab-Tek chambered cover glass (Nunc) for sodium arsenite experiments or 35-mm glass-bottom dishes (MatTek) for heat shock experiments. Immediately prior to the experiment, media was replaced with FluoroBrite DMEM media (Gibco) in each well supplemented with 10% FBS and 4 mM L-glutamine; for sodium arsenite experiments, arsenite was added at a final concentration of 250 μM. Cells were then placed on a microscope on which 37°C temperature and 5% CO2 were maintained using a Bold Line Cage Incubator (Okolab) and an objective heater (Bioptechs), and 5–10 xy fields were stored. For sodium arsenite experiments, acquisition began immediately after finding all xy positions, 4 min after the addition of sodium arsenite. 30 min after arsenite was added, 250 μl FluoroBrite DMEM with 250 μM sodium arsenite and 0.1 mM (2×) G3I compound (vortexed for 5 s) was added to the sample. For heat shock experiments, each xy position was imaged every minute. At 2 min into the acquisition, the objective heater was ramped to 43°C. Following this, 250 μM (5×) G3I compound was prepared in FluoroBrite DMEM and vortexed for 15 s. This solution was kept on a 47°C heater near the microscope along with a pipette tip. […]

[2] = biological target: T1, full-length 6x-His-tagged human G3BP1 (Homo sapiens, UniProt Q13283); assay: Peptide displacement assay (Pep-FRET); assay type: binding; details: for IC50: displacement of FAM-labeled peptide probe, 60 min, room temperature; for displacement of FAM-labeled FGDF peptide from G3BP1: result in words, Fig. 1 C
T1 construct: 10 nM full-length 6x-His-tagged human G3BP1; made in house; host or cells: E. coli BL21 (DE3)
T1 sequence (Q13283 whole entry): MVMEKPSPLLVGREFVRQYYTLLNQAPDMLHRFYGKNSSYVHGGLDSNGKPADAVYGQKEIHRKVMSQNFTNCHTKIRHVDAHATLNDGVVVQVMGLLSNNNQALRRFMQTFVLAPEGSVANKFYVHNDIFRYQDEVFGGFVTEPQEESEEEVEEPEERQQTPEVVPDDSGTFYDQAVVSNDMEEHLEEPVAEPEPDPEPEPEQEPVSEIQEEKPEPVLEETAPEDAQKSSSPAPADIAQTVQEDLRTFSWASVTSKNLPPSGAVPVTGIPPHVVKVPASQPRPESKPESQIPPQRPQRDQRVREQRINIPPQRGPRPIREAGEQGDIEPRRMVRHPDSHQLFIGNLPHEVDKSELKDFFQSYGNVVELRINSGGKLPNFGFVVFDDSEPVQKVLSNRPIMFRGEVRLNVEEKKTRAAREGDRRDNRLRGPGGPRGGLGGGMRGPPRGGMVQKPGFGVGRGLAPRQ
Protocol: Peptide displacement assays were performed in 20 μl total volume at 25°C at pH 7.4 in buffer containing 20 mM Tris-HCl, pH 7.5, 100 mM NaCl, 0.01% bovine serum albumin, 1 mM DTT, and 0.005% Tween-20. 10 nM full-length 6x-His-tagged human G3BP1 was added to the reaction mix containing the test compound and 0.5 nM anti-His-Tb antibody (PerkinElmer). […] Assay plates were shaken for 30 s, then centrifuged for 30 s, and then incubated at room temperature for 60 min. Data were read on an EnVision Multilabel plate reader at 495/520 nm. HTRF ratios were calculated as described by PerkinElmer and IC50s were calculated using GraphPad Prism 9 software and the [Inhibitor] versus Response—Variable Slope (four parameter) fit equation.

[3] = biological target: T2, interaction between G3BP1 and endogenous caprin 1 (Homo sapiens, UniProt Q13283); assay: Coimmunoprecipitation of G3BP1-GFP with endogenous caprin 1 in U2OS lysates; assay type: biochemical; details: increasing concentrations added to U2OS G3BP1-GFP lysates, GFP IP
T2 construct: expressed in transfected cells; host or cells: U2OS cells stably expressing G3BP1-GFP (lysate)
T2 sequence (Q13283 whole entry): as above
Protocol: U2OS cells expressing G3BP1-GFP were grown in 3-cm dishes to 100% confluency, at which point cells were collected and pelleted at 400 × g for 5 min. Pellets were either stored at −80°C or processed the same day by lysing with 200 μl in vivo lysis buffer (150 mM NaCl, 50 mM Tris [pH 7.5], 1 mM EDTA, 0.5% NP-40, and 10% glycerol, supplemented with 1 protease inhibitor tablet [11836170001; Roche]). Lysates were centrifuged at 13,000 × g at 4°C for 15 min, after which supernatants were transferred to a new tube and diluted with 200 μl lysis buffer containing indicated concentrations of G3I compounds. The mixture was then incubated with GFP-Trap (ChromoTek GFP-Trap Magnetic Agarose; Proteintech; gtma) for 2 h at 4°C. Beads were washed three times with lysis buffer, then incubated with 1× SDS sample buffer supplemented with 10% 2-mercaptoethanol, and boiled for 5 min at 95°C. Lysates were subjected to SDS-PAGE and then immunoblotted.
Samples were separated by SDS-PAGE and transferred to membranes. […] Membranes were visualized and quantified with an Odyssey Fc imaging system (LI-COR) and normalized to the amount of G3BP1 immunoprecipitated.

COCCC(NC(=O)C(C)NC(=O)C(NC(=O)C(NC(=O)C(F)CC(C)(C)C)C(C)(C)O)C(C)c1ccccc1)C(=O)N(C)Cc1ccccc1 (stereo not drawn) [G3Ia]
reduction of stress granule area (preformed granules) [1]: ~74%
IC50 [2]: 1.5 µM
displacement of FAM-labeled FGDF peptide from G3BP1 [2]: potently displaced

COCCC(NC(=O)C(C)NC(=O)C(NC(=O)C(NC(=O)C(F)CC(C)(C)C)C(C)(C)O)C(C)c1ccccc1)C(=O)N(C)Cc1ccccc1 (stereo not drawn) [G3Ia′]
IC50 [2]: > 50 µM
displacement of FAM-labeled FGDF peptide from G3BP1 [2]: little effect

CC(NC(=O)C(NC(=O)C(NC(=O)CCC(C)(C)C)C(C)(C)O)C(C)c1ccccc1)C(=O)N1CCCC1c1ccccc1 (stereo not drawn) [G3Ib]
interaction between G3BP1 and endogenous caprin 1 [3]: dose-dependent reduction
reduction of stress granule area (preformed granules) [1]: ~84%
IC50 [2]: 0.7 µM
displacement of FAM-labeled FGDF peptide from G3BP1 [2]: potently displaced

CC(NC(=O)C(NC(=O)C(NC(=O)CCC(C)(C)C)C(C)(C)O)C(C)c1ccccc1)C(=O)N1CCCC1c1ccccc1 (stereo not drawn) [G3Ib′]
interaction between G3BP1 and endogenous caprin 1 [3]: no such effect
IC50 [2]: > 50 µM
displacement of FAM-labeled FGDF peptide from G3BP1 [2]: little effect
